Legend:
[1] = system: Wnt-responsive promoter driving firefly luciferase in SW480 cells; assay: Wnt reporter (SP5 promoter-luciferase) screening assay in SW480 cells; format: cell-based; settings: Homo sapiens, 24-40 h, top concentration ten micromolar
From the text: Another screening assay for Wnt activity is described as follows. Reporter cell lines can be generated by stably transducing cells of cancer cell lines (e.g., colon cancer) with a lentiviral construct that include a Wnt-responsive promoter driving expression of the firefly luciferase gene.
Lentiviral constructs can be made in which the SP5 promoter, a promoter having eight TCF/LEF binding sites derived from the SP5 promoter, is linked upstream of the firefly luciferase gene. The lentiviral constructs can also include a hygromycin resistance gene as a selectable marker. The SP5 promoter construct can be used to transduce SW480 cells, a colon cancer cell line having a mutated APC gene that generates a truncated APC protein, leading to de-regulated accumulation of β-catenin.
Cultured SW480 cells bearing a reporter construct can be distributed at approximately 10,000 cells per well into 96 well or 384 well plates. Compounds from a small molecule compound library can then be added to the wells in half-log dilutions using a ten micromolar top concentration. A series of control wells for each cell type receive only buffer and compound solvent. Twenty-four to forty hours after the addition of compound, reporter activity for luciferase can be assayed, for example, by addition of the BrightGlo luminescence reagent (Promega) and the Victor3 plate reader (Perkin Elmer). Readings can be normalized to DMSO only treated cells, and normalized activities can then be used in the EC50 calculations.

[2] = system: primary human mesenchymal stem cells (hMSCs); assay: Tenocyte differentiation screening in hMSCs (SCXA-positive cells, 4 days); format: cell-based; settings: 96 h, fold change over DMSO
From the text: Representative compounds were screened using primary human mesenchymal stem cells (hMSCs) to determine their ability to induce tenocyte differentiation (process by which tendon is developed).
Primary human mesenchymal stem cells (hMSCs) were purchased from Lonza (Walkersville, Md.) and expanded in Mesenchymal Stem Cell Growth Media (Lonza). Cells between passage 3 and 6 were used for the experiments.
Cells were fixed using 4% formaldehyde (Electron Microscopy Sciences), and stained with anti-Sclerasis (anti-SCXA) antibodies (Abgent, San Diego, Calif.) [Webb S., et. al., Retinoic acid receptor signaling preserves tendon stem cell characteristics and prevents spontaneous differentiation in vitro, Stem Cell Research & Therapy 2016, 7:45] overnight at 4° C. […] Number of cells positive for SCXA in each well was quantified using the Celllnsight CX5. Data was normalized to the average of 12 DMSO treated wells on the same plate using Dotmatics Studies module. The normalized averages (fold change over DMSO) of 3 replicate wells for each compound concentration were calculated. Due to solubility limitations of some of the compounds, values for higher doses were manually corrected and curve fitting and EC50 determinations were performed using Dotmatics Studies.
EC50 for each compound is reported.

SMILES: O=C(Nc1cnccc1C(F)(F)F)c1n[nH]c2ccc(-c3cncc(CN4CCCCC4)c3)cc12 [compound 47, 5-(5-(Piperidin-1-ylmethyl)pyridin-3-yl)-N-(4-(trifluoromethyl)pyridin-3-yl)-1H-indazole-3-carboxamide]
- EC50 [1]: 71 nM
- EC50 [2]: > 100000 nM

SMILES: O=C(Nc1cnccc1C(F)(F)F)c1n[nH]c2ccc(-c3cccnc3)cc12 [compound 48, 5-(Pyridin-3-yl)-N-(4-(trifluoromethyl)pyridin-3-yl)-1H-indazole-3-carboxamide]
- EC50 [1]: ≥ 10000 nM
- EC50 [2]: > 100000 nM

SMILES: O=C(Nc1cccnc1)c1n[nH]c2ccc(-c3cccc(CN4CCCC4)c3)cc12 [compound 49, N-(Pyridin-3-yl)-5-(3-(pyrrolidin-1-ylmethyl)phenyl)-1H-indazole-3-carboxamide]
- EC50 [1]: 57 nM
- EC50 [2]: > 100000 nM

SMILES: O=C(Nc1cccnc1)c1n[nH]c2ccc(-c3ccc(N4CCCC4)nc3)cc12 [compound 51, N-(Pyridin-3-yl)-5-(6-(pyrrolidin-1-yl)pyridin-3-yl)-1H-indazole-3-carboxamide]
- EC50 [1]: 26 nM
- EC50 [2]: > 100000 nM

SMILES: N#Cc1ccc(NC(=O)c2n[nH]c3ccc(-c4cncc(CN5CCCC5)c4)cc23)cn1 [compound 52, N-(6-Cyanopyridin-3-yl)-5-(5-(pyrrolidin-1-ylmethyl)pyridin-3-yl)-1H-indazole-3-carboxamide]
- EC50 [1]: 57 nM
- EC50 [2]: > 100000 nM

SMILES: O=C(Nc1ccc(N2CCCC2)nc1)c1n[nH]c2ccc(-c3cccnc3)cc12 [compound 53, 5-(Pyridin-3-yl)-N-(6-(pyrrolidin-1-yl)pyridin-3-yl)-1H-indazole-3-carboxamide]
- EC50 [1]: 63 nM
- EC50 [2]: > 100000 nM

SMILES: COc1ccc(-c2ccc3[nH]nc(C(=O)Nc4cccnc4)c3c2)cn1 [compound 54, 5-(6-Methoxypyridin-3-yl)-N-(pyridin-3-yl)-1H-indazole-3-carboxamide]
- EC50 [1]: 158 nM
- EC50 [2]: > 100000 nM

SMILES: O=C(Nc1cccnc1)c1n[nH]c2ccc(-c3cncc(Cc4ccccc4)c3)cc12 [compound 55, 5-(5-Benzylpyridin-3-yl)-N-(pyridin-3-yl)-1H-indazole-3-carboxamide]
- EC50 [1]: 44 nM
- EC50 [2]: > 100000 nM

SMILES: O=C(Nc1cccnc1)c1n[nH]c2ccc(-c3cncc(Oc4ccccc4)c3)cc12 [compound 56, 5-(5-Phenoxypyridin-3-yl)-N-(pyridin-3-yl)-1H-indazole-3-carboxamide]
- EC50 [1]: 160 nM
- EC50 [2]: 625 nM

SMILES: O=C(Nc1cnccc1C(F)(F)F)c1n[nH]c2ccc(-c3cncc(CN4CCCC4)c3)cc12 [compound 57, 5-(5-(Pyrrolidin-1-ylmethyl)pyridin-3-yl)-N-(4-(trifluoromethyl)pyridin-3-yl)-1H-indazole-3-carboxamide]
- EC50 [1]: ≥ 10000 nM
- EC50 [2]: > 100000 nM

SMILES: O=C(Nc1cnccc1NC(=O)C1CC1)c1n[nH]c2ccc(-c3cccnc3)cc12 [compound 58, N-(4-(Cyclopropanecarboxamido)pyridin-3-yl)-5-(pyridin-3-yl)-1H-indazole-3-carboxamide]
- EC50 [1]: 71 nM
- EC50 [2]: > 100000 nM

SMILES: O=C(NC1CCCCC1)c1cncc(-c2ccc3[nH]nc(C(=O)Nc4cccnc4)c3c2)c1 [compound 59, 5-(5-(Cyclohexylcarbamoyl)pyridin-3-yl)-N-(pyridin-3-yl)-1H-indazole-3-carboxamide]
- EC50 [1]: 3100 nM
- EC50 [2]: 14600 nM

SMILES: CN1CCN(Cc2cc(F)cc(-c3ccc4[nH]nc(C(=O)Nc5cnccc5C(F)(F)F)c4c3)c2)CC1 [compound 60, 5-(3-Fluoro-5-((4-methylpiperazin-1-yl)methyl)phenyl)-N-(4-(trifluoromethyl)pyridin-3-yl)-1H-indazole-3-carboxamide]
- EC50 [1]: ≥ 10000 nM
- EC50 [2]: > 100000 nM

SMILES: CN1CCN(Cc2cncc(-c3ccc4[nH]nc(C(=O)Nc5cccnc5)c4c3)c2)CC1 [compound 61, 5-(5-((4-Methylpiperazin-1-yl)methyl)pyridin-3-yl)-N-(pyridin-3-yl)-1H-indazole-3-carboxamide]
- EC50 [1]: 239 nM
- EC50 [2]: 12300 nM

SMILES: N#Cc1ccc(NC(=O)c2n[nH]c3ccc(-c4cncc(CN5CCCCC5)c4)cc23)cn1 [compound 62, N-(6-Cyanopyridin-3-yl)-5-(5-(piperidin-1-ylmethyl)pyridin-3-yl)-1H-indazole-3-carboxamide]
- EC50 [1]: 16 nM
- EC50 [2]: > 100000 nM

SMILES: O=C(Nc1ccc(C(F)(F)F)nc1)c1n[nH]c2ccc(-c3cncc(CN4CCCCC4)c3)cc12 [compound 63, 5-(5-(Piperidin-1-ylmethyl)pyridin-3-yl)-N-(6-(trifluoromethyl)pyridin-3-yl)-1H-indazole-3-carboxamide]
- EC50 [1]: 100 nM
- EC50 [2]: 10200 nM

SMILES: O=C(Nc1cccnc1)c1n[nH]c2ccc(-c3cncc(CN4CCOCC4)c3)cc12 [compound 64, 5-(5-(Morpholinomethyl)pyridin-3-yl)-N-(pyridin-3-yl)-1H-indazole-3-carboxamide]
- EC50 [1]: 6 nM
- EC50 [2]: 7660 nM

SMILES: O=C(Nc1ccc(-c2ccccc2)nc1)c1n[nH]c2ccc(-c3cncc(CN4CCCCC4)c3)cc12 [compound 65, N-(6-Phenylpyridin-3-yl)-5-(5-(piperidin-1-ylmethyl)pyridin-3-yl)-1H-indazole-3-carboxamide]
- EC50 [1]: 101 nM
- EC50 [2]: > 100000 nM

SMILES: N#Cc1cncc(-c2ccc3[nH]nc(C(=O)Nc4cccnc4)c3c2)c1 [compound 66, 5-(5-Cyanopyridin-3-yl)-N-(pyridin-3-yl)-1H-indazole-3-carboxamide]
- EC50 [1]: ≥ 10000 nM
- EC50 [2]: > 100000 nM

SMILES: O=C(Nc1cccnc1)c1n[nH]c2ccc(-c3cc(F)cc(CN4CCCCC4)c3)cc12 [compound 67, 5-(3-Fluoro-5-(piperidin-1-ylmethyl)phenyl)-N-(pyridin-3-yl)-1H-indazole-3-carboxamide]
- EC50 [1]: ≥ 10000 nM
- EC50 [2]: > 100000 nM

SMILES: O=C(Nc1ccc(C(F)(F)F)nc1)c1n[nH]c2ccc(-c3cncc(CN4CCOCC4)c3)cc12 [compound 68, 5-(5-(Morpholinomethyl)pyridin-3-yl)-N-(6-(trifluoromethyl)pyridin-3-yl)-1H-indazole-3-carboxamide]
- EC50 [1]: 48 nM
- EC50 [2]: 4610 nM

SMILES: O=C(Nc1ccc(N2CCOCC2)nc1)c1n[nH]c2ccc(-c3cncc(CN4CCCCC4)c3)cc12 [compound 69, N-(6-Morpholinopyridin-3-yl)-5-(5-(piperidin-1-ylmethyl)pyridin-3-yl)-1H-indazole-3-carboxamide]
- EC50 [1]: 50 nM
- EC50 [2]: 12500 nM

SMILES: CN1CCN(c2ccc(NC(=O)c3n[nH]c4ccc(-c5cncc(CN6CCCCC6)c5)cc34)cn2)CC1 [compound 70, N-(6-(4-Methylpiperazin-1-yl)pyridin-3-yl)-5-(5-(piperidin-1-ylmethyl)pyridin-3-yl)-1H-indazole-3-carboxamide]
- EC50 [1]: 41 nM
- EC50 [2]: 10800 nM

SMILES: O=C(Nc1ccc(N2CCCC2)nc1)c1n[nH]c2ccc(-c3cncc(CN4CCCCC4)c3)cc12 [compound 71, 5-(5-(Piperidin-1-ylmethyl)pyridin-3-yl)-N-(6-(pyrrolidin-1-yl)pyridin-3-yl)-1H-indazole-3-carboxamide]
- EC50 [1]: 25 nM
- EC50 [2]: > 100000 nM

SMILES: O=C(Nc1ccc(-c2cccc(F)c2)nc1)c1n[nH]c2ccc(-c3cncc(CN4CCCCC4)c3)cc12 [compound 72, N-(6-(3-Fluorophenyl)pyridin-3-yl)-5-(5-(piperidin-1-ylmethyl)pyridin-3-yl)-1H-indazole-3-carboxamide]
- EC50 [1]: 215 nM
- EC50 [2]: > 100000 nM

SMILES: O=C(Nc1ccc(-c2ccc(F)cc2)nc1)c1n[nH]c2ccc(-c3cncc(CN4CCCCC4)c3)cc12 [compound 73, N-(6-(4-Fluorophenyl)pyridin-3-yl)-5-(5-(piperidin-1-ylmethyl)pyridin-3-yl)-1H-indazole-3-carboxamide]
- EC50 [1]: 322 nM
- EC50 [2]: > 100000 nM

SMILES: CN(C)CCN(C)c1ccc(NC(=O)c2n[nH]c3ccc(-c4cncc(CN5CCCCC5)c4)cc23)cn1 [compound 74, N-(6-((2-(Dimethylamino)ethyl)(methyl)amino)pyridin-3-yl)-5-(5-(piperidin-1-ylmethyl)pyridin-3-yl)-1H-indazole-3-carboxamide]
- EC50 [1]: 65 nM
- EC50 [2]: 10200 nM

SMILES: O=C(Nc1ccnnc1)c1n[nH]c2ccc(-c3cncc(CN4CCCCC4)c3)cc12 [compound 75, 5-(5-(Piperidin-1-ylmethyl)pyridin-3-yl)-N-(pyridazin-4-yl)-1H-indazole-3-carboxamide]
- EC50 [1]: 40 nM
- EC50 [2]: 12400 nM

SMILES: O=C(NCc1cccnc1)c1n[nH]c2ccc(-c3cncc(CN4CCCCC4)c3)cc12 [compound 76, 5-(5-(Piperidin-1-ylmethyl)pyridin-3-yl)-N-(pyridin-3-ylmethyl)-1H-indazole-3-carboxamide]
- EC50 [1]: 850 nM
- EC50 [2]: 2670 nM

Reference: patent US10806726B2, “Methods of using indazole-3-carb oxamides and their use as Wnt/B-catenin signaling pathway inhibitors” (Samumed, LLC, priority 2016, dated 2020)
